Here are results for one compound from ChEMBL document CHEMBL3881525, “Analogs of dehydrophenylahistins and their therapeutic use” (2007).

The source made the active and inactive calls.

One data set concerns HeLa. Put plainly: Effect on cell cycle progression in human HeLa cells assessed as reduction in 2N cells at 100 nM. The format is functional, cell-based.
Data set [1] can be described thus: Cytotoxicity against human CCD-27Sk cells assessed as reduction in cell viability measured after 48 hrs by resazurin dye-based fluorometric analysis. For orientation: Alamar Blue is a resazurin reagent that responds to reducing activity.
Data set [2] is described as follows: Antiproliferative activity against human mitoxantrone-sensitive HL60 cells. It counts as functional, cell-based. The conditions noted are these: HL-60.
The target in data set [3] is T1, Tubulin (Homo sapiens) (UniProt P68371+Q9H4B7+P0DPH7+P68366+Q13509+Q71U36+P04350+Q3ZCM7+P07437+P68363+Q9BQE3+Q6PEY2+Q13885+Q9BVA1+Q9BUF5). Put plainly: Induction of microtubule depolymerization in HUVEC assessed as cell membrane blebbing at 2 uM measured after 30 mins. The format is cell-based.
In the next data set the test system is HUVEC. In words: Induction of apoptosis in HUVEC assessed as disruption of nuclei. The conditions noted are these: Homo sapiens. The format is functional, cell-based.
The next data set concerns Jurkat. Put plainly: Induction of apoptosis in human Jurkat cells assessed as DNA laddering at 1 nM by gel electrophoresis. It counts as functional, cell-based.
Data set [4] in a line: Antifungal activity against Trichophyton mentagrophytes isolate 2 measured after 48 hrs by broth dilution method. It counts as functional.
The test system of data set [5] is Rattus norvegicus. In words: Effect on blood flow in rat skin at 15 mg/kg, ip measured after 1 hr by [125I]iodoantipyrine based method relative to vehicle control. It counts as ADME, organism-based. The conditions noted are these: in vivo.
The test system of data set [6] is Rattus norvegicus. In words: Effect on blood flow in rat kidney at 15 mg/kg, ip measured after 1 hr by [125I]iodoantipyrine based method relative to vehicle control. The format is ADME, organism-based. Particulars: in vivo.
Data set [7] relates to Rattus norvegicus. Put plainly: Effect on blood flow in rat spleen at 15 mg/kg, ip measured after 1 hr by [125I]iodoantipyrine based method relative to vehicle control. It counts as ADME, organism-based. The conditions noted are these: in vivo.
Data set [8] has as its system Rattus norvegicus. In words: Reduction in blood flow in rat brain at 15 mg/kg, ip measured after 24 hrs by [125I]iodoantipyrine based method relative to vehicle control. The format is ADME, organism-based. The conditions noted are these: in vivo.
In another data set the test system is MCF7. Put plainly: Antimitotic activity in human MCF7 cells assessed as mitotic index measured after 20 hrs by DAPI-staining based fluorescence microscopic analysis. The format is functional, cell-based.
The target in data set [9] is T1, Tubulin (Homo sapiens). Put plainly: Induction of microtubule instability in human MCF7 cells assessed as mean growth rate at IC25 for mitotic block measured after 20 hrs by immunofluorescence analysis. The format is cell-based.
In data set [10] the target is T1, Tubulin (Homo sapiens). Put plainly: Induction of microtubule dynamic instability in human MCF7 cells at IC25 for mitotic block measured after 20 hrs by immunofluorescence analysis. It counts as cell-based.
Data set [11] deals with Mitogen-activated protein kinase 10 (Rattus norvegicus) (UniProt P49187). The conditions noted are these: 10 uM.
Description: Inhibition of rat JNK3 at 10 uM in presence of ATP
The target of data set [12] is Tyrosine-protein kinase Lyn (Mus musculus) (UniProt P25911). Particulars: 10 uM.
Description: Inhibition of mouse Lyn at 10 uM in presence of ATP
The target of another data set is Tubulin (Bos taurus) (UniProt Q6B856+Q862L2+Q862F3). Particulars: 1.25 to 5 uM.

Chain of Mitogen-activated protein kinase 10 (Rattus norvegicus) (P49187 whole entry): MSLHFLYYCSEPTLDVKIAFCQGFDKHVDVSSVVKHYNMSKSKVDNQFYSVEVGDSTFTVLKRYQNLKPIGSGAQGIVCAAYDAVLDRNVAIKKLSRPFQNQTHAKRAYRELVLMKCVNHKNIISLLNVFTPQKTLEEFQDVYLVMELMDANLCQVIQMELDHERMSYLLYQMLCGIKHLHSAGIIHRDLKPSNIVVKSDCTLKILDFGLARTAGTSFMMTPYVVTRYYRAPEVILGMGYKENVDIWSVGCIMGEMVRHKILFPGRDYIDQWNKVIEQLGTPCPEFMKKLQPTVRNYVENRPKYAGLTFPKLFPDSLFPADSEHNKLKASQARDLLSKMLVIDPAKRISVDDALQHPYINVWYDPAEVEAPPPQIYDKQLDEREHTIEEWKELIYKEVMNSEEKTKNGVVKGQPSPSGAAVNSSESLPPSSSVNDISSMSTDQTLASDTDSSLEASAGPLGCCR
Chain of Tyrosine-protein kinase Lyn (Mus musculus) (P25911 whole entry): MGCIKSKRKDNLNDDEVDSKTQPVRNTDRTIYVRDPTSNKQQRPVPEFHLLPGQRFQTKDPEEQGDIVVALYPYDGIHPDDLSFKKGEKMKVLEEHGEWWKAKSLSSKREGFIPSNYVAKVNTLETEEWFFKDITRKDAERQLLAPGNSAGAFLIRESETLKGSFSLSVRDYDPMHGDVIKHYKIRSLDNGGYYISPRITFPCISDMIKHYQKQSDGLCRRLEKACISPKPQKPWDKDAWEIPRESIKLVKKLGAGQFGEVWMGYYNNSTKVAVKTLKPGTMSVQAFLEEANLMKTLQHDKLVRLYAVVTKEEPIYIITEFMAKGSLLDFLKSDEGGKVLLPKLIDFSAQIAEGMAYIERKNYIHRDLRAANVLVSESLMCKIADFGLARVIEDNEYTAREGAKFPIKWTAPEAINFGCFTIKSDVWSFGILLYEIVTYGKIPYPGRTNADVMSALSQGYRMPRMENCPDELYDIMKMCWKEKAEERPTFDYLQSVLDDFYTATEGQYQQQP

Consider `CC(C)(C)c1[nH]cnc1/C=c1\[nH]c(=O)/c(=C/c2ccccc2)[nH]c1=O` [PLINABULIN], for which the result in the data set with HeLa, at Tubulin (Homo sapiens) [3], with HUVEC and with Jurkat was Active. In addition, the values for the EC50 in data set [1] and in data set [2] were 9.2 nM and 6.4 nM, respectively. Besides, in data set [4], the MIC – broadly, the smallest concentration in the dilution series that meets the test's criterion for growth inhibition – was above 16 µg/mL. Also, the Activity entry was “Non-Toxic” in the data set on Rattus norvegicus [5]; “Non-Toxic” in the data set with Rattus norvegicus [6]; “Non-Toxic” in the data set on Rattus norvegicus [7]; “Toxic” in the data set on Rattus norvegicus [8]; 11.9 um/min on Tubulin (Homo sapiens) [9]; 10.1 um/min at Tubulin (Homo sapiens) [10]. Moreover, the inhibition (commonly the change of the read-out against control, counted positive when it falls) with MCF7 is “Dose-dependent effect”; in [11], above 50%; in data set [12] it was above 50%. At Tubulin (Bos taurus), the inhibition result was “Active”.
